Test results as given in article PMC6646405, “A quantitative, high-throughput method identifies protein–glycan interactions via mass spectrometry” (Communications Biology, 2019).
Where “and” joins values, the source holds several entries; their conditions need not be identical. Equal entries are not always repeated.

Tests used:
[1] = biological target: streptavidin homotetramer (S4) (Streptomyces avidinii, UniProt P22629); assay: CUPRA library screening against negative control streptavidin; format: binding; design: key: ratio change on GBP addition; ~1.0 = no binding (negative control); settings: depletion index, 50 μM streptavidin
Sequence of streptavidin homotetramer (S4) (P22629 25-183): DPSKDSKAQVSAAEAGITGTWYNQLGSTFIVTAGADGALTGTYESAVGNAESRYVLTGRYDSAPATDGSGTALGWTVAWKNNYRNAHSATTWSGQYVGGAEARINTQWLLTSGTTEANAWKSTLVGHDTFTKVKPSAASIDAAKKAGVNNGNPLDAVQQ

[2] = biological target: Cholera toxin B subunit homopentamer (CTB5) (Vibrio cholerae serotype O1, UniProt P01556); format: binding
Sequence of Cholera toxin B subunit homopentamer (CTB5) (P01556 22-124 limits assumed): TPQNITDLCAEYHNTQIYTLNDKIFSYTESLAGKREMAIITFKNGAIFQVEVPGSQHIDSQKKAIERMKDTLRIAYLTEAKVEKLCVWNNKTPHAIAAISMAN

[3] = system: family 51 carbohydrate binding module (CBM51); assay: CUPRA library screening and affinity, CBM51; settings: 25uM CBM51; mean of 4 DIi values, FigS3a
Protocol: Unless otherwise noted, the measurements were performed at 25 °C. […] We identified specific ligands from the depletion index (DIi, Eq. 1) – the change in the fractional abundance (Fi, Eq. 2) ratio of ligand i-bound and free ^UniPproxy ions upon addition of GBP. Prior to calculating Fi, we treated each mass spectrum with the Sliding Window Adducts Removal Method (SWARM)[18] to remove contributions to the abundance of ^UniPproxy -OS^mod complex ions from adducts, formed by the ESI process, of neighbouring complex ions (Supplementary Fig. 2). Shown in Fig. 2a is a summary of the DIi measured by CUPRA screening of the 66-component library against S4 (50 μM). As expected, the average DIi for this negative control is close to 1.0 (0.99 ± 0.03). In contrast, CUPRA screening against the positive controls produced decreases in DIi for one or more of the library components. […] Application of CUPRA to human CD22, part of an important class of Neu5Ac-binding GBPs implicated in both innate and adaptive immunity, correctly identified HMO08 as a ligand (Supplementary Fig. 4a). CUPRA screening of MAA at high concentration (50 μM) identified HMO03 and GA06 as ligands. […]
Using SWARM-treated mass spectra, DIi was calculated for each ligand from the ratio of the fractional abundances (Fi) of ligand (i)-bound and free ^UniPproxy ions in the presence (+GBP) and absence (-GBP) of GBP, Eqs. […]

human siglec-2 (CD22) = biological target: T1, human siglec-2 (CD22) (Homo sapiens, UniProt P20273); assay: CUPRA library screening and affinity, siglec-2; format: binding; settings: for average DI: mean of 4 DIi values
T1 construct: Residues 1–332 of human Siglec-2 (MW 140 kDa, purity > 95%) were cloned in frame with human IgG1 Fc and a C-terminal His6; made in house
T1 sequence (P20273 20-332): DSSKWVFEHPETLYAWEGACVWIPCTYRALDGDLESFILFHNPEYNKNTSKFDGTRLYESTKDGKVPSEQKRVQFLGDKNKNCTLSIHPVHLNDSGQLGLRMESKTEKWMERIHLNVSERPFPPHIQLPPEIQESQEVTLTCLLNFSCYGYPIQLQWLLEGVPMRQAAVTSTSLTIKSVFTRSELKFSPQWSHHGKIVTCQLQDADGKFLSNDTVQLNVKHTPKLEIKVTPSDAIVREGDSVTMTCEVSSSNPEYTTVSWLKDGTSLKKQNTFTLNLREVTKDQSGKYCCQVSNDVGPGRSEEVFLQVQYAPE

In the case of `CC(=O)N[C@H]1[C@H](O[C@@H]2[C@H](O[C@]3(C(=O)O)C[C@H](O)[C@@H](NC(C)=O)[C@H]([C@H](O)[C@@H](CO)O[C@]4(C(=O)O)C[C@H](O)[C@@H](NC(C)=O)[C@H]([C@H](O)[C@H](O)CO)O4)O3)[C@@H](O)[C@H](O[C@H]3[C@H](O)[C@@H](O)[C@H](N(CCOCCOCCNC(=O)[C@H](Cc4ccccc4)NC(=O)[C@H](Cc4ccccc4)NC(=O)CCCC(=O)NCCc4ccc(S(N)(=O)=O)cc4)C(C)=O)O[C@@H]3CO)O[C@@H]2CO)O[C@H](CO)[C@H](O)[C@@H]1O` [GA10, GalNAcβ1-4(Neu5Acα2-8 Neu5Acα2-3)Galβ1-4Glc-CL], the “average DI” value ([1]; mean of 4) is reported as 0.9828, the “DIi(50uM S4)” value ([1]; measurement 1 of 4) is reported as 0.9829 and the “DIi(50uM S4)” value ([1]; measurement 2 of 4) is reported as 0.9821. The “DIi(50uM S4)” value ([1]; measurement 3 of 4) was 0.9835, the “DIi(50uM S4)” value ([1]; measurement 4 of 4) was 0.9826 and the “DIi(2uM CTB5)” value [2] was 1.017 and 1.023 and 1.026 and 1.032. For the same compound, the “DIi(10uM CTB5)” value [2] was 1.049 and 1.055 and 1.045 and 1.05, the “DIi(10uM CTB5 at 0C)” value [2] was 1.029 and 1.025 and 1.026 and 1.021 and the “average DI” value [2] was 1.025 and 1.0497. For the same compound, the “average DI” value [3] was 0.9576, the “average DI” value (human siglec-2 (CD22); 25uM CD22) was 0.9974 and the “DIi(25uM CD22)” value (human siglec-2 (CD22); 25uM CD22, replicate column 1 of 4) was 0.9925. The “DIi(25uM CD22)” value (human siglec-2 (CD22); 25uM CD22, replicate column 2 of 4) was 1.005, the “DIi(25uM CD22)” value (human siglec-2 (CD22); 25uM CD22, replicate column 3 of 4) was 0.9899 and the “DIi(25uM CD22)” value (human siglec-2 (CD22); 25uM CD22, replicate column 4 of 4) was 1.002. For the same compound, the “average DI” value (human siglec-2 (CD22); 25uM CD22 at 0C) was 0.9401, the “DIi(25uM CD22 at 0C)” value (human siglec-2 (CD22); 25uM CD22 at 0C, replicate column 1 of 4) was 0.9406 and the “DIi(25uM CD22 at 0C)” value (human siglec-2 (CD22); 25uM CD22 at 0C, replicate column 2 of 4) was 0.9609. The “DIi(25uM CD22 at 0C)” value (human siglec-2 (CD22); 25uM CD22 at 0C, replicate column 3 of 4) was 0.9196 and the “DIi(25uM CD22 at 0C)” value (human siglec-2 (CD22); 25uM CD22 at 0C, replicate column 4 of 4) was 0.9395.
